“Also recorded” adds a separate entry of the source.
Assays:
rCav1.3 = assay: Whole-cell patch clamp, recombinant rCav1.3 in HEK293; assay type: cell-based, rat; settings: 10 µM
Procedure: Human embryonic kidney (HEK293T) cells containing the SV40 Large T-antigen were cultured at 37°C, 5% CO2 in Dulbecco’s Modified Eagle’s Medium (DMEM, Invitrogen Life Technologies, Australia), supplemented with 10% fetal bovine serum (FBS, Bovigen, Australia), 1% GlutaMAX and penicillin-streptomycin (Invitrogen, Australia). […]
Depolarization-activated Ca^2+ currents (ICa) in transfected HEK293 cells were recorded in the whole-cell patch clamp configuration. Data were recorded using a MultiClamp 700B amplifier, digitized with a DigiData1440 and controlled using Clampex10.7 software (Molecular Devices, United States). […]
(§1) Statistical significance (p < 0.05) was determined using unpaired Student’s t-test or 1-way ANOVA followed by a Tukey multiple comparison. […]
Numerous HVA Cav channel isoforms are present in rat DRG neurons. […] We transiently co-transfected the individual Cav channel α-subunits of interest together with β3 and α2δ1 subunits in HEK293 cells and measured whole-cell I Ca currents by patch clamp. […]

hCav2.2 = molecular target: T1, hCav2.2 (Homo sapiens, UniProt Q00975); assay: hCav2.2 voltage dependence of activation; assay type: cell-based
T1 construct: expressed in transfected cells; host or cells: HEK293 (HEK293T), transient calcium phosphate co-transfection
Procedure: Human embryonic kidney (HEK293T) cells containing the SV40 Large T-antigen were cultured at 37°C, 5% CO2 in Dulbecco’s Modified Eagle’s Medium (DMEM, Invitrogen Life Technologies, Australia), supplemented with 10% fetal bovine serum (FBS, Bovigen, Australia), 1% GlutaMAX and penicillin-streptomycin (Invitrogen, Australia). HEK293 cells were then transiently co-transfected with the different voltage-gated calcium channel isoforms and green fluorescent protein (GFP) for visualization, using the calcium phosphate method. cDNAs encoding mCav1.2 (a gift from Dr. D. Lipscombe; Addgene plasmid #26572) ([Helton et al., 2005]), rCav1.3 (a gift from Dr. D. Lipscombe; Addgene plasmid # 49,333) ([Xu and Lipscombe, 2001]), hCav2.1 (a gift from Dr. J. Striessnig), rCav2.2 (a gift from Dr. D. Lipscombe), hCav2.2 (a gift from Dr. D. Yue), hCav2.3 (purchased from GenScript United States Inc.) were co-transfected with β3, α2δ1 and GFP. After transfection, cells were plated on 12 mm cover glass and transferred to a 30°C incubator for 1–3 days.
Depolarization-activated Ca^2+ currents (ICa) in transfected HEK293 cells were recorded in the whole-cell patch clamp configuration. Data were recorded using a MultiClamp 700B amplifier, digitized with a DigiData1440 and controlled using Clampex10.7 software (Molecular Devices, United States). Currents were sampled at 100 kHz and filtered to 10 kHz, with leak and capacitive currents subtracted using a −P/4 protocol. […] Intracellular recording solution contained as follows (mM): 140 KGluconate, 5 NaCl, 2 MgCl2, 5 EGTA and 10 HEPES, pH 7.2 with KOH. Cells were continuously perfused with extracellular solution at a rate of ∼1.2 ml/min. […] Activation curves of hCav2.2 were generated through a series of test pulses (50 ms) ranging from −30 to +50 mV (Δ5 mV) every 5 s with a holding potential of −90 mV. […]
as §1

hNav1.7 = hNav1.7 (Homo sapiens, UniProt Q15858); assay type: cell-based
Excerpt: An EPC-9 patch-clamp amplifier and corresponding PULSE software from HEKA Electronik (Lambrecht/Pfalz, Germany) were used to make recordings. Currents were sampled at 50 kHz and recorded on a hard disk. Borosilicate glass from AM Systems, Everett, WA, United States were used for patch pipettes. The input resistance of the pipettes ranged from 2 to 4 MΩ. […] A built-in procedure of the HEKA amplifier compensated for the capacitive transient currents. A −P/6 protocol was utilized to subtract leak current online. I Ca was generated with the recording protocol which included a depolarization from a holding potential of −80 mV to 0 mV for 10 ms every 30 s. I Na was generated through a recording protocol which included a step depolarization from a holding potential of −80 mV to 0 mV for 10 ms at a frequency of 0.1 Hz. Cells were perfused with the test compound via a pressure driven perfusion system (AutoMate Scientific, United States).

Nav1.7 = settings: cited from earlier work
Excerpt: Loss-of-function mutation of the SCN9A gene that codes for Nav1.7 leads to congenital insensitivity to pain ([Cox et al., 2006]), whereas SCN9A gain-of-function mutations causes paroxysmal extreme pain disorder and primary erythromelalgia ([Dib-Hajj et al., 2008]). […] Homology of VGIC voltage sensing domains, and particularly those of Nav channels, is at the crux of the development of genuinely selective Nav1.7 modulators ([Kingwell, 2019]). Given the VSD functional importance in neuronal VGICs and their structural homology, it is not surprising that VDPs target related channel families. […] Mammalian Nav and Cav α-subunits are structurally homologous but differ in their gating mechanisms ([Kubota et al., 2017]).

T1 sequence (P54289 25-956): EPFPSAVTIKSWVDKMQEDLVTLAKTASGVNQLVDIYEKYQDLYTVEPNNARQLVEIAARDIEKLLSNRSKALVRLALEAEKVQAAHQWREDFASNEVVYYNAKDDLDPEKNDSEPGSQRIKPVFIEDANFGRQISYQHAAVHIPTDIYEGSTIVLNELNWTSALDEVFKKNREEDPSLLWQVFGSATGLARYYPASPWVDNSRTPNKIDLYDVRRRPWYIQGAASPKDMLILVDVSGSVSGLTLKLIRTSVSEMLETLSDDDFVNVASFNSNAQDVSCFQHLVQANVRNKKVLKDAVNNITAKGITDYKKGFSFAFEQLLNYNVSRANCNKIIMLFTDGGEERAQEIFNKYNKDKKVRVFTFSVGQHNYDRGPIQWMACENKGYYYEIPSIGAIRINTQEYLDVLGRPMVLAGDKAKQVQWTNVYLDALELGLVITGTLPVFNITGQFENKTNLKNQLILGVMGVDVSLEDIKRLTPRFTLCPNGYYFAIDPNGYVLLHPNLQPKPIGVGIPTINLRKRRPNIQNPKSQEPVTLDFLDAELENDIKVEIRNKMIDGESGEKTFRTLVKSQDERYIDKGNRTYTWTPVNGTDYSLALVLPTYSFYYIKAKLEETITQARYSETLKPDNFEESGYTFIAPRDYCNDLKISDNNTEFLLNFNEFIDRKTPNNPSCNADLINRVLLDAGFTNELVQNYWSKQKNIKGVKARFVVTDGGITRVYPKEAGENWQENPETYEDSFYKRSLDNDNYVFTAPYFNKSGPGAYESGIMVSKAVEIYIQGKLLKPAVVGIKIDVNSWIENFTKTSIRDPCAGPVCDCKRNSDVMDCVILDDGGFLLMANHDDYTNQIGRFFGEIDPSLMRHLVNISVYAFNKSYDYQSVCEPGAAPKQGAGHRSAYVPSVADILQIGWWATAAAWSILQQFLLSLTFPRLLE
T1 sequence (P54289 957-1103): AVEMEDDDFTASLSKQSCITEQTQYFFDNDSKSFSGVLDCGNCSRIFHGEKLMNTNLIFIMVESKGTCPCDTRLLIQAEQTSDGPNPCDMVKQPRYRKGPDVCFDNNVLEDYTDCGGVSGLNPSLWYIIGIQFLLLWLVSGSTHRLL
T1 sequence (Q00975 whole entry): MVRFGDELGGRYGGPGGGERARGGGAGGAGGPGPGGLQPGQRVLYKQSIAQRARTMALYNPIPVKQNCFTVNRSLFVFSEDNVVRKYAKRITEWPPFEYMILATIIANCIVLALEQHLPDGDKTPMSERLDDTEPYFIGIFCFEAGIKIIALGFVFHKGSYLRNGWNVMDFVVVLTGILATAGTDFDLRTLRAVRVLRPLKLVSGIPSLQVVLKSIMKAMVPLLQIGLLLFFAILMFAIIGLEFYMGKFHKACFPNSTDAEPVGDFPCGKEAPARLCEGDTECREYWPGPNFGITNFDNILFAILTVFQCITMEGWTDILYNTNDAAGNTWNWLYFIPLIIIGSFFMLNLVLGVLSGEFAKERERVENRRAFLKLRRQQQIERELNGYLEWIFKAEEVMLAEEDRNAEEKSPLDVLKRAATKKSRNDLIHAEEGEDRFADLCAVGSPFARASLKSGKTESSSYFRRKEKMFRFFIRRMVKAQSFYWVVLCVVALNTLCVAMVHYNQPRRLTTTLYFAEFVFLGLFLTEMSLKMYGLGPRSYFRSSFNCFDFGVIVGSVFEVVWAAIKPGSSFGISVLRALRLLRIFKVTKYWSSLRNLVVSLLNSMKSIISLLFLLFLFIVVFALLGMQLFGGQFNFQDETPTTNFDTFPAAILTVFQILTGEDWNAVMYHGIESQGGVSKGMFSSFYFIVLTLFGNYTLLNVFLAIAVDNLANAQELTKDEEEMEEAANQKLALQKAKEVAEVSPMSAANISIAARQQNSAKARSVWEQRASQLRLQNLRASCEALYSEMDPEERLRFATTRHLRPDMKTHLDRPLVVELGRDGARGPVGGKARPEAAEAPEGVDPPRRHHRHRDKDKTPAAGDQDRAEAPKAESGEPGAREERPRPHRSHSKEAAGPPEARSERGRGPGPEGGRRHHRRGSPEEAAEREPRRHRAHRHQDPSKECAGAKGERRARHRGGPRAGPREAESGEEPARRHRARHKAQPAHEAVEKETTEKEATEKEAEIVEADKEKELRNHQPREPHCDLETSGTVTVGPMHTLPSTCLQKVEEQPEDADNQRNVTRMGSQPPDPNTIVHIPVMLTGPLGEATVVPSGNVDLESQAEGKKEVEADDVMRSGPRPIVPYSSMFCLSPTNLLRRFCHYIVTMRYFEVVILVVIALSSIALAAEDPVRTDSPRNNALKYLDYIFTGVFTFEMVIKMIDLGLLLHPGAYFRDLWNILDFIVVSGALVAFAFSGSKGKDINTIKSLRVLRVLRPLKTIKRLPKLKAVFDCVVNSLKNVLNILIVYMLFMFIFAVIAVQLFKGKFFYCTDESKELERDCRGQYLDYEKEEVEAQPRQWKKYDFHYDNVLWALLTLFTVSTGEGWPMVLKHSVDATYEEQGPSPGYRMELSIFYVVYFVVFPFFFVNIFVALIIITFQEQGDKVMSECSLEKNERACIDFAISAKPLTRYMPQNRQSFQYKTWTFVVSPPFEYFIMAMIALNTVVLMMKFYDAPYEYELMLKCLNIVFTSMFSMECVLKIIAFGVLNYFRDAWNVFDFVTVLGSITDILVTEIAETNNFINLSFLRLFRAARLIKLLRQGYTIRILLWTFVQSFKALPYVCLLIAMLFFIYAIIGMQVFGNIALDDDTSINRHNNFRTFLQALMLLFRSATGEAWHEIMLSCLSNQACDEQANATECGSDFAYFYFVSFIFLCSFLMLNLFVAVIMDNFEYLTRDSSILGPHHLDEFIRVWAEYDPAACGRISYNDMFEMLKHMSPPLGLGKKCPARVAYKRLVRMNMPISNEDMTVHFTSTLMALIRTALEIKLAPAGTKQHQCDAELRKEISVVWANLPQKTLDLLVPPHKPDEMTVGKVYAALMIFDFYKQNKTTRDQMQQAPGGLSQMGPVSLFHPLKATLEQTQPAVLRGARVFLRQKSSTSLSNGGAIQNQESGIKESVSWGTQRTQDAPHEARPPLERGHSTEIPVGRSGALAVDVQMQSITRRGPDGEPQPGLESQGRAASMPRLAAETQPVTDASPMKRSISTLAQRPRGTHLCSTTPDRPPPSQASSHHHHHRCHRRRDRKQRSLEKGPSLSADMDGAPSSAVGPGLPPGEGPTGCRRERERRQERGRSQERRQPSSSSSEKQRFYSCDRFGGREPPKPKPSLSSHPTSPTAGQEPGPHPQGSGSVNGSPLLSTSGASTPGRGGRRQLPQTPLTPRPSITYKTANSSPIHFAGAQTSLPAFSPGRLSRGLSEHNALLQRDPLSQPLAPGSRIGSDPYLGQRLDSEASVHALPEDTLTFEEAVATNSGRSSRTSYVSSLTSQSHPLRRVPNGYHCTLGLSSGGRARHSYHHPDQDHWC
T1 sequence (P54284 whole entry, further chain): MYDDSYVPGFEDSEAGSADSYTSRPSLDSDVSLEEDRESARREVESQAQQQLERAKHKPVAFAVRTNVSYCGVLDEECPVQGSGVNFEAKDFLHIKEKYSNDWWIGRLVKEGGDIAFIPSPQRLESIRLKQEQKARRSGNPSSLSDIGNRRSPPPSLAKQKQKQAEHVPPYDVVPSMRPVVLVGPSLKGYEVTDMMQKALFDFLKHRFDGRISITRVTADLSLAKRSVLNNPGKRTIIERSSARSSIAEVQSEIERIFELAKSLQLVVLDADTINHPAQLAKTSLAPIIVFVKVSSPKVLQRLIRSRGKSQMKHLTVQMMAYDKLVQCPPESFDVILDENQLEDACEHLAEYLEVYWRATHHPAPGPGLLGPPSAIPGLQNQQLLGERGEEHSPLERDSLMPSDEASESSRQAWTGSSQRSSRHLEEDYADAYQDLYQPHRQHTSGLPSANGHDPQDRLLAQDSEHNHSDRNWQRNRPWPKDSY

## CSCC[C@@H]1NC(=O)[C@H](Cc2ccc(O)cc2)NC(=O)[C@H](CCCNC(=N)N)NC(=O)[C@@H](NC(=O)[C@@H](N)CC(=O)O)CSSC[C@@H]2NC(=O)[C@@H]3CSSC[C@@H](C(=O)N[C@@H](C)C(=O)N[C@@H](Cc4c[nH]c5ccccc45)C(=O)N[C@@H](CC(=O)O)C(=O)N[C@@H](Cc4ccccc4)C(=O)N[C@H](C(=O)N[C@@H](Cc4ccccc4)C(=O)N[C@H](C(=O)O)[C@@H](C)O)[C@@H](C)O)NC(=O)[C@H](Cc4ccc(O)cc4)NC(=O)[C@H](CCCCN)NC(=O)[C@H](CCSC)NC(=O)[C@H](CCCCN)NC(=O)[C@H](CCCNC(=N)N)NC(=O)[C@H](CCCCN)NC(=O)[C@H](CSSC[C@H](NC(=O)[C@H](CC(=O)O)NC(=O)CNC(=O)[C@H](Cc4ccccc4)NC1=O)C(=O)N[C@@H](CCC(=O)O)C(=O)N[C@@H](CCCCN)C(=O)N[C@@H](CC(=O)O)C(=O)N[C@@H](CCC(=O)O)C(=O)N[C@@H](CC(=O)O)C(=O)N3)NC(=O)CNC(=O)[C@H](CC(C)C)NC(=O)[C@H](Cc1c[nH]cn1)NC(=O)[C@H](CCCCN)NC2=O [Pn3a, µ-Theraphotoxin-Pn3a]
rCav1.3
  inhibition of Cav1.3-mediated current: 65.6 ± 1.8%
hCav2.2
  effect on voltage dependence of activation (in words): slightly shifted; also recorded: without apparent changes in channel activation
hNav1.7
  difference in hNav1.7 potency from reported value: ~30 fold
  reversibility of hNav1.7 inhibition: virtually irreversible at higher concentrations
Nav1.7
  effect on Nav1.7 SSI (in words): […]
  effect on Nav1.7 voltage dependence of activation (in words): […]
  time to steady-state Nav1.7 block: […]
Nav1.7; read-out: IC 50 for Nav1.7
  IC50: […]
